Measured values reported in US20230091225A1, “Bifunctional chimeric heterocyclic compounds for targeted degradation of androgen receptors and use thereof” (HINOVA PHARMACEUTICALS INC., priority 2019, published 2023).
Where two headings read alike, the source gives them in different places.

Target: T1, androgen receptor (AR) (Homo sapiens, UniProt P10275)
T1 sequence (P10275 1-920): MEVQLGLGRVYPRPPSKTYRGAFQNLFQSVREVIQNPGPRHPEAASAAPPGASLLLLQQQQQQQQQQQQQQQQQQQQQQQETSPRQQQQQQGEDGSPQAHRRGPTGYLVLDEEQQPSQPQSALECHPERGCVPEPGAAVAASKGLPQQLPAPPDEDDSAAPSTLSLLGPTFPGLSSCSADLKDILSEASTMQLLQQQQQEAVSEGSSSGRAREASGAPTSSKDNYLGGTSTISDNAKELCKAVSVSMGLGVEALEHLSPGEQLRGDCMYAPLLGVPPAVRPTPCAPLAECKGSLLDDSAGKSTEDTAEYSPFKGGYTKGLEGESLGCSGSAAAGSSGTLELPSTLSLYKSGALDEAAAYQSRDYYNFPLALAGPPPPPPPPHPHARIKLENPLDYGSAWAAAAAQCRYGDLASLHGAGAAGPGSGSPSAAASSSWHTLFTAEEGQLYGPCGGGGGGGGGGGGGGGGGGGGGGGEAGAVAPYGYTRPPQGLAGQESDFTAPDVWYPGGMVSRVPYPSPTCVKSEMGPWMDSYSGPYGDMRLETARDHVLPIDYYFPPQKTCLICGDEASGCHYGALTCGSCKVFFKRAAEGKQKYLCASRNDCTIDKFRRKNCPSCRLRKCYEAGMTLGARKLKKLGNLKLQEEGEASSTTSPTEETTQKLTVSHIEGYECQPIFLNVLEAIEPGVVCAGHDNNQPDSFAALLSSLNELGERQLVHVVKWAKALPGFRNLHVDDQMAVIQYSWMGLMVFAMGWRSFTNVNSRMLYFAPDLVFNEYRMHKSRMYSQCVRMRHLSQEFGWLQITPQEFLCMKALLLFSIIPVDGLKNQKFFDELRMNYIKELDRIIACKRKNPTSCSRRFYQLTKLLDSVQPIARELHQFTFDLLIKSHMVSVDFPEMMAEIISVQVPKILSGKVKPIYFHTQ
Assay: Degradation of androgen receptor (AR) protein in VCaP cells by ELISA
Format: cell-based
Conditions: for Dmax: VCaP

[1] = AR degradation, VCaP cells, 16 h, ELISA, Table 3-1, read-out: DC50
[2] = AR degradation, VCaP cells, 16 h, ELISA, Table 3-1, read-out: Dmax (%)
[3] = AR degradation, VCaP cells, 16 h, ELISA, Table 3-2, read-out: DC50
[4] = AR degradation, VCaP cells, 16 h, ELISA, Table 3-2, read-out: Dmax (%)

`N#Cc1ccc(O[C@H]2CC[C@H](NC(=O)c3ccc(N4CCC(CN5CCC6(CC5)CN(c5ccc7c(=O)n(C8CCC(=O)NC8=O)cnc7c5)C6)CC4)nn3)CC2)cc1Cl` (stereo partly drawn) [Compound 247] was tested, and the DC50 [1] was < 10 nM and the Dmax [2] was > 80%.
`CC1(C)[C@H](Oc2ccc(C#N)c(Cl)c2)C(C)(C)[C@H]1N1Cc2nc(C#CC3CCC(N4CCC5(CN(c6ccc7c(c6)C(=O)N(C6CCC(=O)NC6=O)C7=O)C5)C4)CC3)ccc2C1=O` (stereo partly drawn) [Compound 373] was tested, and the DC50 [1] was > 300 nM.
`CC1(C)[C@H](Oc2ccc(C#N)c(Cl)c2)C(C)(C)[C@H]1N1Cc2nc(C#CC3CCC(N4CC5CC4CN5c4ccc5c(c4)C(=O)N(C4CCC(=O)NC4=O)C5=O)CC3)cnc2C1=O` (stereo partly drawn) [Compound 388, 2-Chloro-4-((1r,3r)-3-(2-((4-(5-(2-(2,6-dioxopiperidin-3-yl)-1,3-dioxoisoindolin-5-yl)-2,5-diazabicyclo[2.2.1]heptan-2-yl)cyclohexyl)ethynyl)-5-oxo-5,7-dihydro-pyrrolo[3,4-b]pyrazine-26-yl)-2,2,4,4-tetramethylcyclobutoxy) benzonitrile] was tested, and the “Dmax (%)” value (AR degradation, VCaP cells, 16 h, ELISA, Table 3-2) was “++ (60%-40%)” and the DC50 [3] was 100 to 300 nM.
For `CC1(C)[C@H](Oc2ccc(C#N)c(Cl)c2)C(C)(C)[C@H]1N1Cc2nc(C#CC3CCC(N4CC5CC4CN5c4ccc5c(c4)C(=O)N(C4CCC(=O)NC4=O)C5=O)CC3)ccc2C1=O` (single isomer, unassigned) [Compound 353, 2-Chloro-4-((1r,3r)-3-(2-((4-(5-(2-(2,6-dioxopiperidin-3-yl)-1,3-dioxoisoindolin-5-yl)-2,5-diazabicyclo[2.2.1]heptan-2-yl)cyclohexyl)ethynyl)-5-oxo-5,7-dihydro-6H-pyrrolo[3,4-b]pyridin-6-yl)-2,2,4,4-tetramethylcyclobutoxy) benzonitrile], the DC50 [1] was > 300 nM.
In the case of `Cc1cc(O[C@H]2C(C)(C)[C@H](N3Cc4nc(C#C[C@H]5CC[C@H](N6CCN(c7ccc8c(c7)C(=O)N(C7CCC(=O)NC7=O)C8=O)CC6)CC5)ccc4C3=O)C2(C)C)ccc1C#N` (stereo partly drawn) [Compound 402], the DC50 was < 10 nM and the Dmax was > 80%.
“4-((1r,3r)-3-(2-((1r,4r)-4-(4-(2,6-dioxopiperidin-3-yl)-1,3-dioxoisoindolin-5-yl)piperazin-1-2-methoxybenzonitrile [Compound 400]” was tested, and the “Dmax (%)” value was “++++ (key: A: >80%; B: 79%-50%; C: 49%-25%; D: <25%)” and the DC50 (read-out: DC50) was < 10 nM.
For `N#Cc1ccc(O[C@H]2CC[C@H](NC(=O)c3cnc(N4CC5(CCN(C6CCN(c7cc8c(cc7F)C(=O)N(C7CCC(=O)NC7=O)C8=O)CC6)CC5)C4)cn3)CC2)cc1Cl` (stereo partly drawn) [Compound 242, N-((1r,4r)-4-(3-chloro-4-cyanophenoxy)cyclohexyl)-5-(7-(1-(2-(2,6-dioxopiperidin-3-yl)-6-fluoro-1,3-dioxoisoindolin-5-yl)piperidine-4-yl)-2,7-diazaspiro[3.5]nonan-2-yl)pyrazine-2-carboxamide], the DC50 [1] was < 10 nM and the Dmax [2] was > 80%.
With `C[C@@H]1CN(C[C@@H]2[C@H]3CN(c4cc5c(cc4F)C(=O)N(C4CCC(=O)NC4=O)C5=O)C[C@@H]23)CCN1c1ccc(C(=O)N[C@H]2CC[C@H](Oc3ccc(C#N)c(Cl)c3)CC2)nn1` (stereo partly drawn) [Compound 263] the DC50 [1] was < 10 nM and the Dmax [2] was 60 to 80%.
With `CC1(C)[C@H](Oc2ccc(C#N)c(Cl)c2)C(C)(C)[C@H]1N1Cc2nc(N3CCC(CN4CCN(c5cc6c(cc5F)C(=O)N(C5CCC(=O)NC5=O)C6=O)CC4)CC3)ncc2C1=O` (stereo partly drawn) [Compound 382] the DC50 [1] was 10 to 100 nM and the Dmax [2] was > 80%.
In the case of `N#Cc1ccc(OC2CCC(NC(=O)c3cnc(N4C[C@H]5CC[C@@H](C4)N5C[C@H]4[C@@H]5CN(c6cc7c(cc6F)C(=O)N(C6CCC(=O)NC6=O)C7=O)C[C@@H]54)cn3)CC2)cc1Cl` (stereo partly drawn) [Compound 240], the DC50 was 10 to 100 nM and the Dmax was 60 to 80%.
With `CC1(C)[C@H](Oc2ccc(C#N)c(Cl)c2)C(C)(C)[C@H]1N1Cc2nc(N3CCC(CN4CCN(c5ccc6c(c5)C(=O)N(C5CCC(=O)NC5=O)C6=O)CC4)CC3)cnc2C1=O` (stereo partly drawn) [Compound 385] the DC50 [3] was 100 to 300 nM and the Dmax [4] was 60 to 80%.
`CC1(C)[C@H](Oc2ccc(C#N)c(Cl)c2)C(C)(C)[C@H]1N1Cc2nc(C#CC3CC(N4CC5CN(c6cc7c(cc6F)C(=O)N(C6CCC(=O)NC6=O)C7=O)CC5C4)C3)ccc2C1=O` (stereo partly drawn) [Compound 360] showed a DC50 [1] of 10 to 100 nM and a Dmax [2] of 60 to 80%.
With `N#Cc1ccc(O[C@H]2CC[C@H](NC(=O)c3cnc(N4CCC(N5CC6(CCN(c7cc8c(cc7F)C(=O)N(C7CCC(=O)NC7=O)C8=O)CC6)C5)CC4)cn3)CC2)cc1C(F)(F)F` (stereo partly drawn) [Compound 236, N-((1r,4r)-4-(4-cyano-3-(trifluoromethyl)phenoxy)cyclohexyl)-5-(4-(7-(2-(2,6-dioxopiperidin-3-yl)-6-fluoro-1,3-dioxoisoindolin-5-yl)-2,7-diazaspiro[3.5]nonan-2-yl)piperidin-1-yl)pyrazine-2-carboxamide] the DC50 [1] was < 10 nM and the Dmax [2] was > 80%.
In the case of `COc1cc(O[C@H]2C(C)(C)[C@H](N3Cc4nc(C#C[C@H]5C[C@H](N6CCN(c7cc8c(cc7F)C(=O)N(C7CCC(=O)NC7=O)C8=O)CC6)C5)ccc4C3=O)C2(C)C)ccc1C#N` (stereo partly drawn) [Compound 393], the DC50 [3] was 10 to 100 nM and the Dmax [4] was > 80%.
For `CC1(C)[C@H](Oc2ccc(C#N)c(Br)c2)C(C)(C)[C@H]1N1Cc2nc(C#C[C@H]3CC[C@H](N4CCN(c5ccc6c(c5)C(=O)N(C5CCC(=O)NC5=O)C6=O)CC4)CC3)ccc2C1=O` (stereo partly drawn) [Compound 398], the DC50 [3] was 10 to 100 nM and the Dmax [4] was > 80%.
For `Cc1cc(O[C@H]2CC[C@H](NC(=O)c3ccc(N4CCC(CN5CCC6(CC5)CN(c5ccc7c(c5)C(=O)N(C5CCC(=O)NC5=O)C7=O)C6)CC4)nn3)CC2)ccc1C#N` (stereo partly drawn) [Compound 275], the DC50 was < 10 nM and the Dmax was > 80%.
`C[C@H]1CN(c2cnc(C(=O)N[C@H]3CC[C@H](Oc4ccc(C#N)c(Cl)c4)CC3)cn2)CCN1C[C@H]1[C@@H]2CN(c3cc4c(cc3F)C(=O)N(C3CCC(=O)NC3=O)C4=O)C[C@@H]21` (stereo partly drawn) [Compound 169] gave a DC50 [1] of 10 to 100 nM and a Dmax [2] of 60 to 80%.
Work on `C[C@@H]1CN(C[C@@H]2[C@H]3CN(c4cc5c(cc4F)C(=O)N(C4CCC(=O)NC4=O)C5=O)C[C@@H]23)CCN1c1cnc(C(=O)N[C@H]2CC[C@H](Oc3ccc(C#N)c(Cl)c3)CC2)cn1` (stereo partly drawn) [Compound 264, N-((1r,4R)-4-(3-chloro-4-cyanophenoxy)cyclohexyl)-5-((2R)-4-((1R,5S,6s)-3-(2-(2,6-dioxopiperidin-3-yl)-6-fluoro-1,3-dioxoisoindolin-5-yl)-3-azabicyclo[3.1.0]n-hexane-6-yl)methyl-2-methylpiperazin-1-yl)pyrazine-2-carboxamide] yielded a DC50 [1] of 10 to 100 nM and a Dmax [2] of 60 to 80%.
For `CC1(C)[C@H](Oc2ccc(C#N)c(Cl)c2)C(C)(C)[C@H]1N1Cc2nc(C#CC3CCC(N4CCC5(CCN(c6cc7c(cc6F)C(=O)N(C6CCC(=O)NC6=O)C7=O)C5)C4)CC3)ccc2C1=O` (stereo partly drawn) [Compound 367, 2-Chloro-4-((1r,3r)-3-(2-((4-(7-(2-(2,6-dioxopiperidin-3-yl)-6-fluoro-1,3-dioxoisoindolin-5-yl)-2,7-diazaspiro[4.4]nonan-2-yl)cyclohexyl)ethynyl)-5-oxo-5,7-dihydro-6H-pyrrolo[3,4-b]pyridin-6-yl)-2,2,4,4-tetramethylcyclobutoxy) benzonitrile], the “Dmax (%)” value (AR degradation, VCaP cells, 16 h, ELISA, Table 3-1) was “++ (60%-40%)” and the DC50 [1] was 100 to 300 nM.
In the case of `N#Cc1ccc(O[C@H]2CC[C@H](NC(=O)c3ncc(N4CCC(CN5CCC6(CC5)CN(c5ccc7c(c5)C(=O)N(C5CCC(=O)NC5=O)C7=O)C6)CC4)cn3)CC2)cc1Cl` (stereo partly drawn) [Compound 149], the DC50 was > 300 nM and the Dmax was < 40%.
In the case of `N#Cc1ccc(OC2CCC(NC(=O)c3cn(C4CCC(CN5CCC6(CC5)CN(c5cc7c(cc5F)C(=O)N(C5CCC(=O)NC5=O)C7=O)C6)CC4)cn3)CC2)cc1Cl` [Compound 112, N-((1r,4R)-4-(3-chloro-4-cyanophenoxy)cyclohexyl)-1-((1r,4R)-4-((2-(2,6-dioxopiperidin-3-yl)-6-fluoro-1,3-dioxoisoindolin-5-yl)-2,7-diazaspiro[3.5]nonan-7-yl)methyl)cyclohexyl)-1H-imidazole-4-carboxamide], the “Dmax (%)” value was “+ (key: ++++: >80%; +++: 80%-60%; ++: 60%-40%; +: <40%)” and the DC50 (read-out: DC50) was > 300 nM.
With `N#Cc1ccc(O[C@H]2CC[C@H](NC(=O)c3ccc(N4CCC(N5CCC6(CC5)CN(c5ccc7c(c5)C(=O)N(C5CCC(=O)NC5=O)C7=O)C6)CC4)nn3)CC2)cc1Cl` (stereo partly drawn) [Compound 281, N-((1r,4r)-4-(3-chloro-4-cyanophenoxy)cyclohexyl)-6-(4-(2-(2-(2,6-dioxopiperidin-3-yl)-1,3-dioxoisoindolin-5-yl)-2,7-diazaspiro[3.5]nonan-7-yl)piperidin-1-yl)pyridazine-3-formamide] the DC50 [1] was < 10 nM and the Dmax [2] was > 80%.
